From patent US10173968B2, “Bishydrazone-based antifungal agents” (University of Kentucky Research Foundation, priority 2016, dated 2019)
Where two headings read alike, the source gives them in different places.

What was measured:
B. subtilis 168 = test: Antibacterial MIC, double-dilution method; format: cell-based; settings: Bacillus subtilis, strain A, Gram-positive
Method in brief: (§1)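 Step one: single-point test of each compound at 500 μM. Step two: MIC determination across doubling dilutions.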

E. coli MC1061 = test: Antibacterial MIC, double-dilution method; format: cell-based; settings: Escherichia coli, strain G, Gram-negative, read-out: MIC
Method in brief: as §1

K. pneumoniae ATCC 27736 = test: Antibacterial MIC, double-dilution method; format: cell-based; settings: Klebsiella pneumoniae, ATCC27736, strain H, Gram-negative, read-out: MIC
Method in brief: as §1

[1] = test system: L. monocytogenes ATCC 19115; test: Antibacterial MIC, double-dilution method; format: cell-based; settings: Listeria monocytogenes, ATCC19115, strain B, Gram-positive, read-out: MIC
Method in brief: as §1

M. smegmatis MC2-155 = test: Antibacterial MIC, double-dilution method; format: cell-based; settings: Mycolicibacterium smegmatis, MC2155, strain K, mycobacterial; converted from μM; read-out: MIC
Method in brief: as §1

MRSA = test: Antibacterial MIC, double-dilution method; format: cell-based; settings: Staphylococcus aureus, strain C, Gram-positive, read-out: MIC
Method in brief: as §1

P. aeruginosa ATCC 27853 = test: Antibacterial MIC, double-dilution method; format: cell-based; settings: Pseudomonas aeruginosa, ATCC27853, strain I, Gram-negative, read-out: MIC
Method in brief: as §1

S. enterica ATCC 14028 = test: Antibacterial MIC, double-dilution method; format: cell-based; settings: Salmonella enterica, ATCC14028, strain J, Gram-negative, read-out: MIC
Method in brief: as §1

VRE = test: Antibacterial MIC, double-dilution method; format: cell-based; settings: Enterococcus, strain D, Gram-positive, converted from μM, read-out: MIC
Method in brief: as §1

C. albicans ATCC 1003 = test: Antifungal MIC, CLSI M27-A3 microbroth dilution; format: cell-based, Candida albicans; settings: Candida albicans, ATCC1003; C. albicans ATCC 1003; converted from μg/mL; read-out: MIC
Description: (§2) In vitro MIC testing was performed according to the CLSI M27-A3 standard microbroth dilution methodology for the susceptibility testing of yeasts with minor modifications.

C. albicans ATCC 10231 [2] = test: Antifungal MIC, CLSI M27-A3 microbroth dilution; format: cell-based, Candida albicans; settings: Candida albicans, ATCC10231, C. albicans ATCC 10231, resistant to FLC, ITC, and VOR, read-out: MIC
Description: as §2

C. albicans ATCC 1237 = test: Antifungal MIC, CLSI M27-A3 microbroth dilution; format: cell-based, Candida albicans; settings: Candida albicans, ATCC1237, C. albicans ATCC 1237, resistant to FLC, ITC, and VOR; converted from μg/mL; read-out: MIC
Description: as §2

C. albicans ATCC 2310 = test: Antifungal MIC, CLSI M27-A3 microbroth dilution; format: cell-based, Candida albicans; settings: Candida albicans, ATCC2310; C. albicans ATCC 2310, susceptible to FLC, ITC, and VOR; converted from μg/mL; read-out: MIC
Description: as §2

C. albicans ATCC 2876 = test: Antifungal MIC, CLSI M27-A3 microbroth dilution; format: cell-based, Candida albicans; settings: Candida albicans, ATCC2876; C. albicans ATCC 2876, susceptible to FLC, ITC, and VOR; converted from μg/mL; read-out: MIC
Description: as §2

C. albicans ATCC 64124 = test: Antifungal MIC, CLSI M27-A3 microbroth dilution; format: cell-based, Candida albicans; settings: Candida albicans, ATCC64124; C. albicans ATCC 64124, resistant to FLC, ITC, and VOR; converted from μg/mL; read-out: MIC
Description: as §2

C. albicans ATCC 90819 = test: Antifungal MIC, CLSI M27-A3 microbroth dilution; format: cell-based, Candida albicans; settings: Candida albicans, ATCC90819; C. albicans ATCC 90819, resistant to FLC, ITC, and VOR; converted from μg/mL; read-out: MIC
Description: as §2

[3] = test system: L. monocytogenes ATCC 19115 (strain B); format: cell-based, Listeria monocytogenes
Description: (§3) The bacteria were grown in MH broth at 37° C. for these experiments. […] The resulting cultures were diluted 1:1000 and grown until the culture reached ˜300,000 cfu/mL. That culture was then further diluted 1:1000 and used to determine the next round of MIC values.

MRSA (strain C) = format: cell-based, Staphylococcus aureus
Description: as §3

VRE (strain D) = format: cell-based, enterococcus
Description: as §3

[4] = test system: P. aeruginosa ATCC 27853 (strain I); format: cell-based
Description: as §3

C. albicans ATCC 10231 [5] = format: cell-based, Candida albicans
C. albicans ATCC 10231 [6] = test: Intracellular ROS production, DCFH-DA fluorescence assay; format: cell-based, Candida albicans; settings: at 1× and 2× MIC values, 1 h at 35° C.
Text: We used the 2′,7′-dichlorodihydrofluorescein diacetate (DCFH-DA) dye as a probe to measure the production of ROS in yeast cells upon treatment with our compounds. DCFH-DA can easily cross the cell membranes and be hydrolyzed by cellular esterases to the non-fluorescent 2′,7′-dichlorodihydrofluorescein (DCFH), which can further be oxidized to the highly fluorescent 2′,7′-dichlorofluorescein (DCF) by the intracellular ROS. Five mL of RPMI 1640 medium were inoculated using a single colony of C. albicans ATCC 10231 (strain A) in a Falcon tube and grown overnight at 35° C. at 200 rpm. The overnight culture was diluted by adding 200 μL of yeast cells to 800 μL of the same medium. […] H2O2 at 1 mM was also used as a positive control. Cells were centrifuged and washed twice with PBS buffer (pH 7.2). Cells were resuspended in the same buffer and incubated with DCFH-DA (20 μg/mL) for 30 min in the dark. Afterwards, cells were centrifuged and washed with PBS buffer to remove excess DCFH-DA. Glass slides with 10-15 μL of each mixture were prepared and observed in bright field and fluorescence modes (FITC filter set, excitation and emission wavelengths of 488 and 512 nm, respectively) using a Zeiss Axovert 200M fluorescence microscope (FIG. 3).

[7] = test system: C. albicans strains (panel of seven); test: Antifungal MIC, summary over the panel; format: cell-based, Candida albicans
Method in brief: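 MIC endpoints were read by eye and taken as the minimum compound concentration producing complete inhibition compared with untreated growth. Testing followed the CLSI M27-A3 yeast microdilution standard, slightly modified.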

[8] = after 15 serial passages at sub-inhibitory concentrations

C/C(=N\NC(=N)N)c1ccc2c(c1)Cc1cc(/C(C)=N/NC(=N)N)ccc1-2.Cl.Cl [Compound 4F, (2E,2′E)-2,2′-((9H-Fluorene-2,7-diyl)bis(ethan-1-yl-1-ylidene))bis(hydrazine-1-carboximidamide) dihydrochloride]
MIC (B. subtilis 168; converted from μM): 3.4 µg/mL | MIC (B. subtilis 168; range 0.5 to 500 μM): 7.8 µM | MIC (E. coli MC1061; converted from μM): 218 µg/mL | MIC (E. coli MC1061; range 0.5 to 500 μM): 500 µM | MIC (K. pneumoniae ATCC 27736; converted from μM): 13.6 to 27.2 µg/mL | MIC (K. pneumoniae ATCC 27736; range 0.5 to 500 μM): 31.3 to 62.5 µM | MIC ([1]; converted from μM): < 0.2 µg/mL | MIC ([1]; range 0.5 to 500 μM): < 0.5 µM | MIC (M. smegmatis MC2-155): 0.4 µg/mL | MIC (MRSA; converted from μM): 0.4 to 0.9 µg/mL | MIC (MRSA; range 0.5 to 500 μM): 1 to 2 µM | MIC (P. aeruginosa ATCC 27853; converted from μM): 0.4 to 0.9 µg/mL | MIC (P. aeruginosa ATCC 27853; range 0.5 to 500 μM): 1 to 2 µM | MIC (S. enterica ATCC 14028; converted from μM): 1.7 µg/mL | MIC (S. enterica ATCC 14028; range 0.5 to 500 μM): 3.9 µM | MIC (VRE): 0.4 µg/mL | MIC (C. albicans ATCC 1003): 2.3 µM | MIC (C. albicans ATCC 10231 [2]; converted from μg/mL): 2.3 to 4.6 µM | MIC (C. albicans ATCC 10231 [2]): 1 to 2 µg/mL | MIC (C. albicans ATCC 1237): 4.6 µM | MIC (C. albicans ATCC 2310): 2.3 µM | MIC (C. albicans ATCC 2876): 2.3 µM | MIC (C. albicans ATCC 64124): 2.3 µM | MIC (C. albicans ATCC 90819): 4.6 µM | increase in relative MIC values [3, 8]: one-fold | development of resistance (passages after which resistance developed) ([3]; up to 15 passages): did not develop resistance | increase in relative MIC values (MRSA (strain C); [8]): one-fold | development of resistance (passages after which resistance developed) (MRSA (strain C); up to 15 passages): did not develop resistance | increase in relative MIC values (VRE (strain D); [8]): one-fold | development of resistance (passages after which resistance developed) (VRE (strain D); up to 15 passages): did not develop resistance | increase in relative MIC values [4, 8]: one-fold | development of resistance (passages after which resistance developed) ([4]; up to 15 passages): did not develop resistance | shift in relative MIC values (C. albicans ATCC 10231 [5]; after 13 passages, sub-MIC drug concentrations): 2 fold | development of drug resistance (C. albicans ATCC 10231 [5]; repeated treatments with sub-MIC drug concentrations): unable to develop drug resistance | intracellular ROS production (C. albicans ATCC 10231 [6]): significantly increased intracellular ROS production | MIC ([7]; Candida albicans, all, most or majority of the fungal strains, read-out: MIC, span over C. albicans strains): 1 to 3.9 µg/mL | antifungal activity in words ([7]; against all fungal strains tested): excellent antifungal activities
